From PubChem BioAssay AID328 (DTP/NCI, 2004)
“And” between values parts separate entries of the source, which are not always exact repeats. Equal entries are not always repeated. Inconclusive results and toxic doses are left out.

System: BDF1 mice, P388 leukemia ip, median survival T/C
Assay: NCI In Vivo Anticancer Drug Screen. Data for tumor model P388 Leukemia (intraperitoneal) in B6D2F1 (BDF1) mice
Settings: endpoint: median survival time, higher = longer survival
In short: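 Each value expresses how treatment altered survival: treated-mouse outcome over vehicle-mouse outcome, both groups bearing the transplanted tumour.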

[1] = dose: 100.0 mg/kg/injection, schedule: Q04DX003 (ip), vehicle: saline
[2] = dose: 200.0 mg/kg/injection, schedule: Q04DX003 (ip), vehicle: saline
[3] = dose: 400.0 mg/kg/injection, schedule: Q04DX003 (ip), vehicle: saline
[4] = dose: 200.0 mg/kg/injection, schedule: Q04DX003 (ip), vehicle: saline with Tween-80
[5] = dose: 400.0 mg/kg/injection, schedule: Q04DX003 (ip), vehicle: saline with Tween-80
[6] = dose: 100.0 mg/kg/injection, schedule: Q01DX009 (ip), vehicle: Klucel (hydroxypropylcellulose) (HPC)
[7] = dose: 200.0 mg/kg/injection, schedule: Q01DX009 (ip), vehicle: Klucel (hydroxypropylcellulose) (HPC)
[8] = dose: 400.0 mg/kg/injection, schedule: Q01DX009 (ip), vehicle: Klucel (hydroxypropylcellulose) (HPC)
[9] = dose: 6.25 mg/kg/injection, schedule: Q01DX009 (ip), vehicle: saline
[10] = dose: 12.5 mg/kg/injection, schedule: Q01DX009 (ip), vehicle: saline
[11] = dose: 25.0 mg/kg/injection, schedule: Q01DX009 (ip), vehicle: saline
[12] = dose: 100.0 mg/kg/injection, schedule: Q04DX003 (ip), vehicle: Klucel (hydroxypropylcellulose) (HPC)
[13] = dose: 200.0 mg/kg/injection, schedule: Q04DX003 (ip), vehicle: Klucel (hydroxypropylcellulose) (HPC)
[14] = dose: 100.0 mg/kg/injection, schedule: Q04DX003 (ip), vehicle: saline with Tween-80
[15] = dose: 100.0 mg/kg/injection, schedule: Q01DX009 (ip), vehicle: saline with Tween-80
[16] = dose: 200.0 mg/kg/injection, schedule: Q01DX009 (ip), vehicle: saline with Tween-80
[17] = dose: 400.0 mg/kg/injection, schedule: Q01DX009 (ip), vehicle: saline with Tween-80
[18] = dose: 50.0 mg/kg/injection, schedule: Q01DX009 (ip), vehicle: saline with Tween-80
[19] = dose: 50.0 mg/kg/injection, schedule: Q01DX009 (ip), vehicle: saline
[20] = dose: 50.0 mg/kg/injection, schedule: Q04DX003 (ip), vehicle: saline

Compound: C/C(=N\N=C(N)N)c1ccc(NC(=O)Nc2ccc(/C(C)=N/N=C(N)N)cc2)cc1
- T/C (dose: 1.5 mg/kg/injection, schedule: Q04DX003 (ip), vehicle: saline): 115 % of control
- T/C (dose: 5.4 mg/kg/injection, schedule: Q04DX003 (ip), vehicle: saline): 150 % of control
- T/C (dose: 44.0 mg/kg/injection, schedule: Q04DX003 (ip), vehicle: saline): 163 % of control
- T/C (dose: 66.0 mg/kg/injection, schedule: Q04DX003 (ip), vehicle: saline): 118 % of control
- T/C [1]: 154 % of control
- T/C [2]: 179 % of control
- T/C (dose: 264.0 mg/kg/injection, schedule: Q04DX003 (ip), vehicle: saline): 180 % of control and 222 % of control
- T/C [3]: 236 % of control and 241 % of control and 190 % of control

Compound: O=C(Nc1ccc(Cl)cc1C(=O)c1ccccn1)c1ccccc1
- T/C [4]: 120 % of control
- T/C [5]: 110 % of control

Compound: Cc1ccc(C2NC(=O)c3ccccc3N2)c(C)c1 (stereo not drawn)
- T/C [6]: 110 % of control
- T/C [7]: 110 % of control
- T/C [8]: 120 % of control

Compound: CC([OH2+])CNCCN.CC([OH2+])CNCCN.O=S(=O)([O-])[O-].[Cu+2] (stereo not drawn)
- T/C [9]: 101 % of control
- T/C [10]: 91 % of control
- T/C [11]: 94 % of control

Compound: CC(=O)c1c(O)c(C)c(O)c2c1OC1=CC(=O)C(C(C)=O)C(=O)C12C (stereo not drawn)
- T/C (dose: 5.0 mg/kg/injection, schedule: Q01DX009 (ip), vehicle: gum acacia): 100 % of control and 103 % of control
- T/C (dose: 10.0 mg/kg/injection, schedule: Q01DX009 (ip), vehicle: gum acacia): 105 % of control and 108 % of control
- T/C (dose: 20.0 mg/kg/injection, schedule: Q01DX009 (ip), vehicle: gum acacia): 107 % of control
- T/C (dose: 35.0 mg/kg/injection, schedule: Q01DX010 (ip), vehicle: saline): 116 % of control
- T/C (dose: 40.0 mg/kg/injection, schedule: Q01DX009 (ip), vehicle: gum acacia): 96 % of control and 105 % of control
- T/C (dose: 53.0 mg/kg/injection, schedule: Q01DX010 (ip), vehicle: saline): 122 % of control
- T/C (dose: 79.0 mg/kg/injection, schedule: Q01DX010 (ip), vehicle: saline): 122 % of control
- T/C (dose: 80.0 mg/kg/injection, schedule: Q01DX009 (ip), vehicle: gum acacia): 103 % of control and 108 % of control

Compound: O=[N+]([O-])c1ccc(C(Br)C(Br)c2ccccc2Br)cc1 (stereo not drawn)
- T/C [12]: 100 % of control
- T/C [13]: 95 % of control
- T/C (dose: 400.0 mg/kg/injection, schedule: Q04DX003 (ip), vehicle: Klucel (hydroxypropylcellulose) (HPC)): 90 % of control

Compound: CCOC(=O)C(N)C[S][Sn]([CH3])([CH3])[Cl] (stereo not drawn)
- T/C [9]: 122 % of control
- T/C [10]: 124 % of control

Compound: CN1CCOC1=Nc1ccc(Cl)cc1
- T/C (dose: 50.0 mg/kg/injection, schedule: Q04DX003 (ip), vehicle: saline with Tween-80): 104 % of control
- T/C [14]: 86 % of control and 100 % of control
- T/C [4]: 95 % of control
- T/C [5]: 90 % of control

Compound: Oc1ccc2ccccc2c1N=Nc1ccc(F)cc1
- T/C [15]: 100 % of control
- T/C [16]: 90 % of control
- T/C [17]: 95 % of control

Compound: Fc1ccc(-c2n[nH]c3c2CCCc2ccccc2-3)cc1
- T/C [14]: 114 % of control
- T/C [4]: 114 % of control
- T/C [5]: 123 % of control

Compound: N#Cc1ccc(CC(O)c2ccc(Cl)cc2)cc1 (stereo not drawn)
- T/C [18]: 108 % of control
- T/C [15]: 89 % of control
- T/C [16]: 96 % of control

Compound: CC/C(=C\c1ccc(Cl)cc1)[N+](=O)[O-]
- T/C [10]: 97 % of control
- T/C [11]: 99 % of control
- T/C (dose: 25.0 mg/kg/injection, schedule: Q04DX003 (ip), vehicle: saline): 87 % of control
- T/C [19]: 99 % of control
- T/C [20]: 104 % of control
- T/C [1]: 104 % of control and 109 % of control

Compound: N#CCCN(CCC#N)/N=N\c1nc[nH]c1C(N)=O
- T/C [18]: 101 % of control
- T/C [15]: 105 % of control
- T/C [16]: 113 % of control
- T/C [17]: 113 % of control

Compound: CCCC(=O)Nc1ccc([N+](=O)[O-])cc1OC
- T/C [15]: 90 % of control
- T/C [16]: 100 % of control
- T/C [17]: 100 % of control

Compound: CC(C)Cc1c[nH]c(=O)[nH]c1=O
- T/C [14]: 90 % of control
- T/C [4]: 90 % of control
- T/C [5]: 90 % of control

Compound: O=S1(=O)CC2(N3CCOCC3)C3CCC(C3)C21 (stereo not drawn)
- T/C [14]: 111 % of control
- T/C [5]: 92 % of control

Compound: O=C1OCCC1C(=O)C(O)(C(F)(F)F)C(F)(F)F (stereo not drawn)
- T/C (dose: 100.0 mg/kg/injection, schedule: Q01DX001 (ip), vehicle: other): 90 % of control
- T/C (dose: 200.0 mg/kg/injection, schedule: Q01DX001 (ip), vehicle: other): 90 % of control
- T/C (dose: 400.0 mg/kg/injection, schedule: Q01DX001 (ip), vehicle: other): 100 % of control

Compound: O=C(N/N=C/c1ccc2c(c1)CCC2)c1ccccc1
- T/C (dose: 25.0 mg/kg/injection, schedule: Q04DX003 (ip), vehicle: Klucel (hydroxypropylcellulose) (HPC)): 100 % of control
- T/C (dose: 50.0 mg/kg/injection, schedule: Q04DX003 (ip), vehicle: Klucel (hydroxypropylcellulose) (HPC)): 96 % of control
- T/C [12]: 94 % of control
- T/C [13]: 100 % of control

Compound: CC(=O)CC(C)(C)c1ccccc1
- T/C [11]: 118 % of control
- T/C [19]: 111 % of control
- T/C [20]: 105 % of control
- T/C [1]: 105 % of control
- T/C (dose: 200.0 mg/kg/injection, schedule: Q01DX009 (ip), vehicle: saline): 93 % of control
- T/C [2]: 121 % of control
- T/C [3]: 102 % of control

Compound: C#CCOC1CCCCO1 (stereo not drawn)
- T/C [11]: 90 % of control
- T/C [19]: 100 % of control
- T/C (dose: 100.0 mg/kg/injection, schedule: Q01DX009 (ip), vehicle: saline): 100 % of control

Compound: COc1cc2c(c(OC)c1OC)-c1ccc(OC)c(=O)cc1[C@@H](NC(=O)CF)CC2
- T/C (dose: 0.09 mg/kg/injection, schedule: Q01DX009 (ip), vehicle: saline with Tween-80): 187 % of control
- T/C (dose: 0.09 mg/kg/injection, schedule: Q01DX009 (ip), vehicle: saline): 188 % of control
- T/C (dose: 0.18 mg/kg/injection, schedule: Q01DX009 (ip), vehicle: saline with Tween-80): 232 % of control
- T/C (dose: 0.18 mg/kg/injection, schedule: Q01DX009 (ip), vehicle: saline): 257 % of control
- T/C (dose: 0.37 mg/kg/injection, schedule: Q01DX009 (ip), vehicle: saline): 103 % of control
- T/C (dose: 46.2 micrograms/kg/injection, schedule: Q01DX009 (ip), vehicle: saline with Tween-80): 158 % of control
- T/C (dose: 185.0 micrograms/kg/injection, schedule: Q01DX009 (ip), vehicle: saline with Tween-80): 89 % of control
- T/C (dose: 370.0 micrograms/kg/injection, schedule: Q01DX009 (ip), vehicle: saline with Tween-80): 247 % of control

Compound: O=C(c1ccccc1)C1CCC(=O)C1c1ccccc1 (stereo not drawn)
- T/C [18]: 108 % of control
- T/C [15]: 100 % of control
- T/C [16]: 99 % of control

Compound: CC(=O)O[C@H]1[C@H]2O[C@]23[C@@H]2CC[C@@H]4C[C@@H](OC(=O)CCC(=O)O)CC[C@]4(C)[C@H]2CC[C@]3(C)[C@H]1c1ccc(=O)oc1
- T/C (dose: 0.13 mg/kg/injection, schedule: Q01DX009 (ip), vehicle: Klucel (hydroxypropylcellulose) (HPC)): 100 % of control
- T/C (dose: 0.25 mg/kg/injection, schedule: Q01DX009 (ip), vehicle: Klucel (hydroxypropylcellulose) (HPC)): 101 % of control
- T/C (dose: 0.5 mg/kg/injection, schedule: Q01DX009 (ip), vehicle: Klucel (hydroxypropylcellulose) (HPC)): 101 % of control

Compound: O=CC(C=O)[N+](=O)[O-]
- T/C [6]: 91 % of control
- T/C [7]: 95 % of control
- T/C [8]: 108 % of control

Compound: CCS(=O)(=O)OC1CCCCCCC1NC(=O)c1ccccc1 (stereo not drawn)
- T/C (dose: 25.0 mg/kg/injection, schedule: Q01DX009 (ip), vehicle: saline with Tween-80): 95 % of control
- T/C [18]: 109 % of control
- T/C [15]: 104 % of control

Compound: NC(=O)NCCCC(N)C(=O)O (stereo not drawn)
- T/C (dose: 50.0 mg/kg/injection, schedule: Q01DX010 (ip), vehicle: saline): 94 % of control
- T/C (dose: 100.0 mg/kg/injection, schedule: Q01DX010 (ip), vehicle: saline): 94 % of control
- T/C (dose: 200.0 mg/kg/injection, schedule: Q01DX010 (ip), vehicle: saline): 89 % of control

Compound: Cc1c(Cl)cc(Cl)c(N)c1Cl
- T/C [4]: 100 % of control
- T/C [5]: 100 % of control

Compound: C(=C\c1ccccc1)/CSc1ncnc2nc[nH]c12
- T/C [15]: 104 % of control
- T/C [14]: 90 % of control
- T/C [16]: 104 % of control
- T/C [4]: 104 % of control
- T/C [17]: 100 % of control
- T/C [5]: 100 % of control
